Results taken from patent US5653957A, “Halogenated sulfidohydroboranes for nuclear medicine and boron neutron capture therapy” (Associated Universities, Inc., priority 1996, dated 1997).

Key:
mice [1] = assay: Subacute toxicity in mice judged by hematological and chemical tests of the blood 5 days after i.p. injection; assay type: in vivo, female mice (BNL Hale-Stoner strain)
Description: C) 0.9% NaCl in water (saline) (7 mice).
Injection volumes were all 0.015 mL/gbw.
Inadvertently,the BSSB group (Group A) received 17 μg ^10 B/gbw, only about one-third of the intended boron dose, 50 μg/gbw. Nevertheless, it is useful to compare the subacute toxicity of a relatively high dose of a substance, IBSSB, which had never before been tested in an animal, with that of its parent compound, BSSB, which is known to be non-lethal at about 35 μg B/gbw, i.e., twice the lower of the two boron doses used See Slatkin et al., "Boron Uptake in Melanoma, Cerebrum and Blood from Na2 B12 H11 SH and Na4 B24 H22 S2 Administered to Mice", Biochem. Pharm., 35, 1771 (1986).
See Miura et al., "Biodistribution and Toxicity of 2,4-Divinyl-nido-carboranyldeuterophorphyrin IX in Mice". Biochem. Pharm., 43, 467 (1992). It therefore appears that the periodinated borane is not more toxic than the non-iodinated borane.

mice [2] = details: at about 35 μg B/gbw; cited from earlier work
brain tumors = details: mouse, in vivo; cited from earlier work
[3] = mouse, in vivo
Description: Three groups of female mice (BNL Hale-Stoner strain) were given a single intraperitoneal (i.p.) injection of:
Injection volumes were all 0.015 mL/gbw. Five days after the injection, mice were euthanized by deep halothane inhalation anesthesia. Thoracotomy was performed, and about 0.7-0.9 mL blood was removed through the right ventricle. Hematological and chemical analyses were performed on blood specimens from each mouse.
(mg/dL), blood urea nitrogen [BUN] (mg/dL), blood creatinine [BCR] (mg/dL) aspartate transaminase [AST] (U/L), alanine transaminase [ALT] (U/L), alkaline phosphatase [ALP] (U/L), creatine phosphokinase [CPK] (U/L), total protein [TPR] (g/dL), albumin [ALB] (g/dL), calcium [CA] (mg/dL), chloride [CHL] (meg/L), inorganic phosphorus [P] (mg/dL), potassium [K] (meg/L), and sodium [SOD] (meg/L) .

## BSSB
Mice [1]; mouse, in vivo
  fourteen chemical and thirteen hematological tests, BSSB (Group A) vs IBSSB (Group B): no significant differences between the two groups
Mice [2]
  lethality: non-lethal
Brain tumors
  accumulation in brain tumors vs the monomeric form: more readily accumulated in brain tumors than the monomeric form

## periodinated dimeric sulfidohydrododecaborane [IBSSB]
Mice [1]; mouse, in vivo
  fourteen chemical and thirteen hematological tests, BSSB (Group A) vs IBSSB (Group B): no significant differences between the two groups
  hepatotoxicity: may be slightly hepatotoxic to mice
  other differences between mice in groups B and C: No other differences were noted
  significant toxicity: no evidence of significant toxicity
Mice [1]; single i.p. 50 μg B/gbw, vs three-fold less BSSB, 5 days later
  toxicity judged by hematological and chemical tests of the blood, vs BSSB: only minimally more toxic
[3]
  alanine transaminase [ALT]: 22 U/L
  albumin [ALB]: 3.3 g/dL
  alkaline phosphatase [ALP]: 110 U/L
  aspartate transaminase [AST]: 44 U/L
  blood creatinine [BCR]: 0.5 mg/dL
  blood urea nitrogen [BUN]: 28 mg/dL
  calcium [CA]: 11.5 mg/dL
  chloride [CHL]: 116 meg/L
  creatine phosphokinase [CPK]: 35 U/L
  glucose [GLU]: 278 mg/dL
  inorganic phosphorus [P]: 9.9 mg/dL
  potassium [K]: 7.1 meg/L
  sodium [SOD]: 154 meg/L
  total protein [TPR]: 5.9 g/dL
